The target of the test is human PCSK9 (Homo sapiens, UniProt Q8NBP7). The test can be described thus: PCSK9 ligand binding TR-FRET assay (interference with binding of human PCSK9 to human LDLR). The settings on record: for Max % inhibition: PCSK9 FRET assay, efficacy (Amax), 100% = 1 uM unlabeled human PCSK9, 0% = DMSO; for IC50: TR-FRET, human PCSK9 Alexa Fluor 647 / human LDLR extracellular domain-Europium Kryptate, read-out: PCSK9 FRET Assay IC50. In short, it runs like this: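 Threefold compound dilutions were pre-incubated 30 min with PCSK9, after which 4 nM Europium Kryptate-tagged human LDLR ectodomain was added for a further 2 h.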
Sequence of human PCSK9 (Q8NBP7 153-692): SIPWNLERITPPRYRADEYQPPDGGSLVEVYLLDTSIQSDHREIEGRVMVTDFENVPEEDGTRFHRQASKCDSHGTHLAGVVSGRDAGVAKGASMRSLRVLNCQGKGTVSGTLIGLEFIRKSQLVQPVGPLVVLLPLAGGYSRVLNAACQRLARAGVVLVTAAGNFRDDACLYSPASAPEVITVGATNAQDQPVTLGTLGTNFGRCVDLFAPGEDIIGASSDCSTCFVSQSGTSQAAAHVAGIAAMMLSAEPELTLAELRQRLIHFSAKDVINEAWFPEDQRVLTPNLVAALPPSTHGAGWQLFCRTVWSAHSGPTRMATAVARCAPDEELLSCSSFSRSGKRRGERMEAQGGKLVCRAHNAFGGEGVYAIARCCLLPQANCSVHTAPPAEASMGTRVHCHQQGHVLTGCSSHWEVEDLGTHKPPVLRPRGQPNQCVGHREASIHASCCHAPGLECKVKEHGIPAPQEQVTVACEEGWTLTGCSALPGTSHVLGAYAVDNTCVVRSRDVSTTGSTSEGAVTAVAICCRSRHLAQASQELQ
Sequence of human PCSK9 (Q8NBP7 31-152 partner limits assumed): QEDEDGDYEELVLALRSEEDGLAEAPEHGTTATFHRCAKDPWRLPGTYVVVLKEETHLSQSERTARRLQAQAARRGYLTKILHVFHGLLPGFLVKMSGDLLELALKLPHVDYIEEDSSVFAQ
(In general: TR-FRET usually uses a lanthanide donor and a delayed reading to cut background.)

As to `COC[C@@H]1NC(=O)[C@H](CCN(C)C)N(Cc2ccc(Cl)cc2Oc2ccc(-c3cnc(CN(C)C)n3C)cc2)C(=O)C[C@@H](Cc2ccccn2)C(=O)N(C)[C@H]2CCCC[C@@H]2NC(=O)C[C@H](Cc2ccc(Cl)cc2)N(C)C1=O` [Compound 250, (4S,7S,10S,14R,16aS,20aS)-11-(4-chloro-2-(4-(2-((dimethylamino)methyl)-1-methyl-1H-imidazol-5-yl)phenoxy)benzyl)-4-(4-chlorobenzyl)-10-(2-(dimethylamino)ethyl)-7-(methoxymethyl)-5,16-dimethyl-14-(pyridin-2-ylmethyl)hexadecahydrobenzo[l][1,4,7,11,14]pentaazacyclooctadecine-2,6,9,12,15(3H)-pentaone], the Max % inhibition is reported as 84.24% and the IC50 turned out to be 0.4 nM.

For the molecule `COC[C@@H]1NC(=O)[C@H](C)N(Cc2ccc(Cl)cc2Oc2ccc(-c3cnc(CN4CCCC4)n3C)cc2)C(=O)C[C@@H](Cc2ccn(C(F)F)n2)C(=O)N(C)[C@@H](C)CNC(=O)C[C@H](Cc2ccc(Cl)cc2)N(C)C1=O` [Compound 63, (2S,5S,8S,13S)-1-(4-chloro-2-(4-(1-methyl-2-(pyrrolidin-1-ylmethyl)-1H-imidazol-5-yl)phenoxy)benzyl)-8-(4-chlorobenzyl)-16-((1-(difluoromethyl)-1H-pyrazol-3-yl)methyl)-5-(methoxymethyl)-2,7,13,14-tetramethyl-1,4,7,11,14-pentaazacyclooctadecane-3,6,10,15,18-pentaone], the Max % inhibition stood at 103.93% and the IC50 was 87.3 nM.

With `COC[C@@H]1NC(=O)[C@H](C)N(Cc2c[nH]c(=O)cc2Oc2ccc(-c3cnc(CN(C)C)n3C)cc2)C(=O)C[C@@H](Cc2ccccc2)C(=O)N(C)[C@@H](C)CNC(=O)C[C@H](Cc2ccc(Cl)cc2)N(C)C1=O` [Compound 168, (2S,5S,8S,13S,16R)-16-benzyl-8-(4-chlorobenzyl)-1-((4-(4-(2-((dimethylamino)methyl)-1-methyl-1H-imidazol-5-yl)phenoxy)-6-oxo-1,6-dihydropyridin-3-yl)methyl)-5-(methoxymethyl)-2,7,13,14-tetramethyl-1,4,7,11,14-pentaazacyclooctadecane-3,6,10,15,18-pentaone], the Max % inhibition was 85.66% and the IC50 was found to be 67.7 nM.

As to `COC[C@@H]1NC(=O)[C@H](C)N(Cc2ccc(Cl)cc2Oc2ccc(-c3cnc(CN4CCCC4)n3C)cc2)C(=O)C[C@@H](Cc2ccc(F)c(F)c2)C(=O)N(C)[C@@H](C)CNC(=O)C[C@H](Cc2ccc(Cl)cc2)N(C)C1=O` [Compound 165, (2S,5S,8S,13S,16R)-1-(4-chloro-2-(4-(1-methyl-2-(pyrrolidin-1-ylmethyl)-1H-imidazol-5-yl)phenoxy)benzyl)-8-(4-chlorobenzyl)-16-(3,4-difluorobenzyl)-5-(methoxymethyl)-2,7,13,14-tetramethyl-1,4,7,11,14-pentaazacyclooctadecane-3,6,10,15,18-pentaone], the Max % inhibition turned out to be 92.29% and the IC50 was found to be 5.6 nM.

For the molecule `COC[C@@H]1NC(=O)[C@H](C)N(Cc2ccc(Cl)cc2Oc2ccc(-n3cnc(CN4CCCC4)c3C)cc2)C(=O)C[C@@H](Cc2ccccc2)C(=O)N(C)[C@H]2CCCC[C@@H]2NC(=O)C[C@H](Cc2ccc(Cl)cc2)N(C)C1=O` [Compound 19, (4S,7S,10S,14R,16aS,20aS)-14-benzyl-11-(4-chloro-2-(4-(5-methyl-4-(pyrrolidin-1-ylmethyl)-1H-imidazol-1-yl)phenoxy)benzyl)-4-(4-chlorobenzyl)-7-(methoxymethyl)-5,10,16-trimethylhexadecahydrobenzo[l][1,4,7,11,14]pentaazacyclooctadecine-2,6,9,12,15(3H)-pentaone], the Max % inhibition is 106.65% and the IC50 came to 1.5 nM.

With `COC[C@@H]1NC(=O)[C@H](C)N(Cc2ccc(Cl)cc2Oc2c(F)cc(-c3cnc(CN4CCCC4)n3C)cc2F)C(=O)C[C@@H](Cc2ccccc2)C(=O)N(C)[C@@H](C)CNC(=O)C[C@H](Cc2ccc(Cl)cc2)N(C)C1=O` [Compound 298, (2S,5S,8S,13S,16R)-16-benzyl-1-(4-chloro-2-(2,6-difluoro-4-(1-methyl-2-(pyrrolidin-1-ylmethyl)-1H-imidazol-5-yl)phenoxy)benzyl)-8-(4-chlorobenzyl)-5-(methoxymethyl)-2,7,13,14-tetramethyl-1,4,7,11,14-pentaazacyclooctadecane-3,6,10,15,18-pentaone], the Max % inhibition was determined as 99.00% and the half-maximal inhibitory concentration (IC50) amounted to 2.01 nM.

Turning to `COC[C@@H]1NC(=O)[C@H](CCC(=O)N2CC3(COC3)C2)N(Cc2ccc(Cl)cc2Oc2ccc(-c3cnc(CN(C)C)n3C)cc2)C(=O)C[C@@H](Cc2ccccc2)C(=O)N(C)[C@@H](C)CNC(=O)C[C@H](Cc2ccc(Cl)cc2)N(C)C1=O` [Compound 95, (2S,5S,8S,13S,16R)-16-benzyl-1-(4-chloro-2-(4-(2-((dimethylamino)methyl)-1-methyl-1H-imidazol-5-yl)phenoxy)benzyl)-8-(4-chlorobenzyl)-5-(methoxymethyl)-7,13,14-trimethyl-2-(3-oxo-3-(2-oxa-6-azaspiro[3.3]heptan-6-yl)propyl)-1,4,7,11,14-pentaazacyclooctadecane-3,6,10,15,18-pentaone], the Max % inhibition is 104.58% and the IC50 was determined as 0.8 nM.

In the case of `COC[C@@H]1NC(=O)[C@H](C)N(Cc2ccc(Cl)cc2Oc2ccc(-c3cnc(CN(C)C)n3C)cc2)C(=O)CCC(=O)N(C)[C@@H](C)CNC(=O)C[C@H](Cc2ccc(Cl)cc2)N(C)C1=O` [Compound 195, (2S,5S,8S,13S)-1-(4-chloro-2-(4-(2-((dimethylamino)methyl)-1-methyl-1H-imidazol-5-yl)phenoxy)benzyl)-8-(4-chlorobenzyl)-5-(methoxymethyl)-2,7,13,14-tetramethyl-1,4,7,11,14-pentaazacyclooctadecane-3,6,10,15,18-pentaone], the Max % inhibition stood at 100.43% and the IC50 was found to be 73.4 nM.

In the case of `COC[C@@H]1NC(=O)[C@H](C)N(Cc2ccc(Cl)cc2Oc2ccc(-c3cnc(C(C)O)n3C)cc2)C(=O)C[C@@H](Cc2ccccc2)C(=O)N(C)[C@H]2CCCC[C@@H]2NC(=O)C[C@H](Cc2ccc(Cl)cc2)N(C)C1=O` (stereo partly drawn) [Compound 242, (4S,7S,10S,14R,16aS,20aS)-14-benzyl-11-(4-chloro-2-(4-(2-(1-hydroxyethyl)-1-methyl-1H-imidazol-5-yl)phenoxy)benzyl)-4-(4-chlorobenzyl)-7-(methoxymethyl)-5,10,16-trimethylhexadecahydrobenzo[l][1,4,7,11,14]pentaazacyclooctadecine-2,6,9,12,15(3H)-pentaone], the Max % inhibition was determined as 87.34% and the IC50 stood at 1.3 nM.

Turning to `COC[C@@H]1NC(=O)[C@H](C)N(Cc2ccc(Cl)cc2Oc2ccc(-c3cnc(CN(C)C)n3C)cc2)C(=O)C[C@@H](Cc2cc(F)cc(F)c2F)C(=O)N(C)[C@@H](C)CNC(=O)C[C@H](Cc2ccc(Cl)cc2)N(C)C1=O` [Compound 98, (2S,5S,8S,13S,16R)-1-(4-chloro-2-(4-(2-((dimethylamino)methyl)-1-methyl-1H-imidazol-5-yl)phenoxy)benzyl)-8-(4-chlorobenzyl)-5-(methoxymethyl)-2,7,13,14-tetramethyl-16-(2,3,5-trifluorobenzyl)-1,4,7,11,14-pentaazacyclooctadecane-3,6,10,15,18-pentaone], the Max % inhibition is on record as 98.16% and the IC50 was 1.9 nM.

In the case of `C[C@H]1CNC(=O)C[C@H](Cc2ccc(Cl)cc2)N(C)C(=O)[C@H](CO)NC(=O)[C@H](C)N(Cc2ccccc2Oc2ccc(-c3cnc(CN(C)C)n3C)cc2)C(=O)CCC(=O)N1C` [Compound 66, (2S,5S,8S,13S)-8-(4-chlorobenzyl)-1-(2-(4-(2-((dimethylamino)methyl)-1-methyl-1H-imidazol-5-yl)phenoxy)benzyl)-5-(hydroxymethyl)-2,7,13,14-tetramethyl-1,4,7,11,14-pentaazacyclooctadecane-3,6,10,15,18-pentaone], the Max % inhibition is 91.88% and the IC50 is 77.2 nM.

With `C[C@H]1CNC(=O)C[C@H](Cc2ccc(Cl)cc2)N(C)C(=O)[C@H](COC(F)F)NC(=O)[C@H](C)N(Cc2ccc(Cl)cc2Oc2ccc(-c3cnc(CN(C)C)n3C)cc2)C(=O)C[C@@H](Cc2ccccc2)C(=O)N1C` [Compound 170, (2S,5S,8S,13S,16R)-16-benzyl-1-(4-chloro-2-(4-(2-((dimethylamino)methyl)-1-methyl-1H-imidazol-5-yl)phenoxy)benzyl)-8-(4-chlorobenzyl)-5-((difluoromethoxy)methyl)-2,7,13,14-tetramethyl-1,4,7,11,14-pentaazacyclooctadecane-3,6,10,15,18-pentaone], the Max % inhibition came to 102.49% and the IC50 worked out at 1.3 nM.

For `COC[C@@H]1NC(=O)[C@H](CC(=O)O)N(Cc2ccc(Cl)cc2Oc2ccc(-c3cnc(CN(C)C)n3C)cc2)C(=O)C[C@@H](Cc2ccccc2)C(=O)N(C)[C@H]2CCCC[C@@H]2NC(=O)C[C@H](Cc2ccc(Cl)cc2)N(C)C1=O` [Compound 219, 2-((4S,7S,10S,14R,16aS,20aS)-14-benzyl-11-(4-chloro-2-(4-(2-((dimethylamino)methyl)-1-methyl-1H-imidazol-5-yl)phenoxy)benzyl)-4-(4-chlorobenzyl)-7-(methoxymethyl)-5,16-dimethyl-2,6,9,12,15-pentaoxodocosahydrobenzo[l][1,4,7,11,14]pentaazacyclooctadecin-10-yl)acetic acid], the Max % inhibition is 105.15% and the IC50 was found to be 0.9 nM.

On to `COC[C@@H]1NC(=O)[C@H](C)N(Cc2ccc(Cl)cc2Oc2ccc(-c3cnc(CN(C)C)n3C)cc2)C(=O)C[C@@H](Cc2ccc(C(F)F)cc2)C(=O)N(C)[C@@H](C)CNC(=O)C[C@H](Cc2ccc(Cl)cc2)N(C)C1=O` [Compound 57, (2S,5S,8S,13S,16R)-1-(4-chloro-2-(4-(2-((dimethylamino)methyl)-1-methyl-1H-imidazol-5-yl)phenoxy)benzyl)-8-(4-chlorobenzyl)-16-(4-(difluoromethyl)benzyl)-5-(methoxymethyl)-2,7,13,14-tetramethyl-1,4,7,11,14-pentaazacyclooctadecane-3,6,10,15,18-pentaone], for which the Max % inhibition turned out to be 95.83% and the IC50 was 2.1 nM.

One may read the IC50 as the concentration that inhibits the measured activity by half.

These data come from patent publication US20230089867A1, “CYCLIC PENTAMER COMPOUNDS AS PROPROTEIN CONVERTASE SUBTILISIN/KEXIN TYPE 9 (PCSK9) INHIBITORS FOR THE TREATMENT OF METABOLIC DISORDER” (Novartis AG, priority 2018, published 2023).
